Earlier results in patent US7196163B2, “Assays using amyloid precursor proteins with modified β-secretase cleavage sites to monitor β-secretase activity” (Merk & Co., Inc., priority 2001, dated 2007).

Tested on: Cultured cells
Settings: cultured cells expressing cDNA encoding APP; cited from earlier work

NLDA (Swedish): APP Swedish mutant, NLDA at the β-secretase cleavage site
Aβ produced relative to cells expressing wild-type APP: 6–8 fold
